According to patent US6177592A, “Compounds” (priority 1997, dated 2001):

Experiments:
NO production = assay: Inhibition of LPS-induced NO production in RAW264.7; format: cell-based, mouse; conditions: RAW 264.7
Procedure: Inhibition activity of GM to NO production and to cell damage was measured as follows using mouse macrophage cell strain RAW264.7 cells (ATCC TIB 71) and LPS.
Dulbecco-modified Eagle's medium (manufactured by Life Technologies Oriental; 11054-020) containing 2 mM of L-glutamine (manufactured by Life Technologies Oriental; 25030-149) containing no Phenol Red containing 5 ml of 10% fetal calf serum (manufactured by Gibco) containing 1.5×10^6 cells of RAW 264.7 was incubated in a six-well tissue culture plate in the presence of 5% carbon dioxide gas at 37° C. for 12 hours, 50μl of 50μg/ml LPS (manufactured by Sigma; L-2012) was added, then each 50 μl of 250 )i M Mn or 100 μH GM was added to each well, incubation was further continued for additional 12 hours and, after that, NO2^- produced by oxidation of NO in the medium and amount of viable cell numbers were measured. Incidentally, a sect-Lon where no LPS was added and a section where no GM was added were prepared as controls. […]

CEM-SS cells = assay: Survival rate of CEM-SS cells; format: cell-based; conditions: one day
Procedure: GM (0, 4, 8 or 16 μM) was added to 2×10^5 cell/ml of CEM-SS cells (ATCC CCL-119) and to CEM-SS cells infected with HIV-1IIIB (wherein not less than 90% of the CEM-SS cells were infected with the HIV-1IIIB; hereinafter, referred to as CEM-3B) incubation was conducted for one day, viable cell numbers and dead cell numbers were counted and survival cell rate was calculated.

Jurkat cells = assay: Growth of Jurkat cells (MTT); format: cell-based, human; conditions: 24 hours
Procedure: (1) Jurkat cells (ATCC TIB-152) and Molt-3 cells (ATCC CRL-1552) which were human T cell leukemia cell stain were incubated in an RPMI 1640 medium (manufactured by Gibco BRL) containing 10% fetal calf serum (FCS, manufactured by Bio Whittaker) at 37° C. in the presence of 5% CO2 and the cells were then suspended in the above-mentioned medium containing 0, 5, 10 or 20 μM of GM to make the cell numbers 5×10^5 cells/ml followed by incubating for 24 hours. Cell growth was measured by an MTT method [Mosmann, et al.: J. Immunol. Methods, volume 65, pages 55-63 (1983)] wherein degree of cell growth was determined by the absorbance at 560 nm.

NIH 3T3/E7-2 = assay: Colony formation of HPV16 E7-transformed NIH 3T3/E7-2 cells; format: cell-based
Procedure: (§1) (1) Transformation to Escherichia coli HB101 was conducted by control plasmid pcD2-Y expressing G418-resisting gene [Mol. Cell. Biol., volume 7, pages 2745-2752 (1987)] and plasmid pcD2-16E7 which was capable of expressing both HPV 16 type E7 and G418-resisting gene [Jpn. J. Cancer Res., volume 82, pages 1340-1343 (1991)], then incubation was conducted in an L-broth medium and plasmid was extracted from the collected cells and purified by a cesium chloride density gradient ultracentrifugation to give vector plasmid for introduction of gene.
(§2) The purified plasmid (10 μg) was introduced into NIH 3T3 cells using a cationic liposome (TransIT LT-1, manufactured by Takara Shuzo), the cells were selected at 37° C. under the condition of 5% CO2 for two weeks in a Dulbecco-modified Eagle's medium containing 10% calf serum which contained 0.4 mg/ml of G418 (Gibco) and the resulting colonies were cloned to establish each nine strains of NIH 3T3 cells into which control vector was introdcd and NIH 3T3 cells which was cancerated with HPV 16 type E7.
The cells strains into which E7 was introduced were named NIH 3T3/E7-1, NIH 3T3/E7-2, NIH 3T3/E7-3, NIH 3T3/E7-4, NIH 3T3/E7-5, NIH 3T3/E7-6, NIH 3T3/E7-7, NIH 3T3/E7-8 and NIH 3T3/E7-9. […]
(§3) A part of the suspension was taken out and cell density was counted by a Neubauer's hemocytometer. […]

NIH 3T3/Y-1 = assay: Colony formation of control-vector NIH 3T3/Y-1 cells; format: cell-based; conditions: 5 μM GM, nine days; control 83.3 ± 8.4
Procedure: as §1, §2
The cell strains into which control vector was introduced were named NIH 3T3/Y-1, NIH 3T3/Y-2, NIH 3T3/Y-3, NIH 3T3/Y-4, NIH 3T3/Y-5, NIH 3T3/Y-6, NIH 3T3/Y-7, NIH 3T3/Y-8 and […]). […]
as §3

SMILES: N[C@@H](CCC(=O)N[C@@H](CSC1C=C(O)C(=O)C1)C(=O)NCC(=O)O)C(=O)O (stereo partly drawn) [GM, 2-hydroxy-4-glutathion-S-yl-2-cyclopenten-1-one]
- inhibition of NO production (NO production): inhibited the NO production induced by LPS
- survival rate of cells (CEM-SS cells; 16 μM): the survival rate of CEM-SS cells decreased as well
- survival rate of cells (CEM-SS cells; 4 or 8 μM): survival rate did not decrease in CEM-SS cells
- effect in the growth of cells (Jurkat cells; 5 μM or less): no significant effect in the growth of cells
- inhibition at 10 µM (Jurkat cells; Homo sapiens, 10 μM, read-out: inhibition of cell growth): ~50%
- inhibition at 20 µM (Jurkat cells; Homo sapiens, 20 μM, read-out: inhibition of cell growth): ≥ 75%
- sensitivity of E7-introduced cells compared with control cells (in words) (NIH 3T3/E7-2; 5 μM): high sensitivity to GM as compared with the control cells
- Numbers of Colonies (Mean Value ± SD) (NIH 3T3/E7-2; 5 μM GM, nine days, control 67.3 ± 3.2): 13.3 ± 3.2
- Numbers of Colonies (Mean Value ± SD) (NIH 3T3/Y-1): 72.0 ± 9.5
